{"source": "paper PMC6086891", "about": "“Adenosine Kinase couples sensing of cellular potassium depletion to purine metabolism” (Scientific Reports, 2018)", "format_in_all_cases": "binding", "key": {"[1]": {"target": "T1, Adenosine Kinase (mADK) (Mus musculus, UniProt P55264)", "experiment": "X-ray crystal structure, […] Å binary complex (also the […] Å ternary complex 5KB5); kinetics show competitive inhibition against ATP", "design": "gene Adk; Δ19mADK, Leu20 – Phe360 (binary complex); full-length mADK (ternary complex)"}, "[2]": {"target": "T1, Adenosine Kinase (mADK)", "experiment": "2D […]-1H HSQC titration and 1D 1H STD NMR", "design": "gene Adk"}, "[3]": {"target": "T2, Adenosine Kinase (mADK) (Mus musculus, UniProt P55264, D310P)", "T2 construct": "gene Adk", "T2 sequence (P55264 whole entry D310P)": "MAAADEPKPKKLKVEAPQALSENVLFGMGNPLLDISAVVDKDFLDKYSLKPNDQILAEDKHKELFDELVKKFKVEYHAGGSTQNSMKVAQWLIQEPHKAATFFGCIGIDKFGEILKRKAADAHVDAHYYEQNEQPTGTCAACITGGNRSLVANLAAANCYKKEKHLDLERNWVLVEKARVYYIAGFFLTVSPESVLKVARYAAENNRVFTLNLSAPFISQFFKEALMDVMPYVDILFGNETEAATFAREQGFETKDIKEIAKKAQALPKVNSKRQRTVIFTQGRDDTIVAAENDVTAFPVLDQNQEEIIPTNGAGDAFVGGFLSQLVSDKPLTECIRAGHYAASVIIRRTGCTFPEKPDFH", "experiment": "2D […]-1H HSQC titration and 1D 1H STD NMR (weaker than wild type)"}, "[4]": {"target": "T1, Adenosine Kinase (mADK)", "experiment": "X-ray crystal structure, […] Å ternary complex mADK:ADO:ADP", "design": "gene Adk; full-length mADK (Met1 to His362); model residues 20 to 360"}}}
{"smiles": "Nc1ncnc2c1ncn2[C@@H]1O[C@H](CO)[C@@H](O)[C@H]1O", "note": "[ADO, adenosine]", "values": [{"measurement": "X-ray crystal structure, 1.2 Å binary complex (also the 1.8 Å ternary complex 5K)", "setting": "[1]", "result": "In the mADK:ADO complex, electronic density for ADO was identified in the BS1 site"}]}
{"smiles": "Nc1ncnc2c1ncn2[C@@H]1O[C@H](CO[P@](=O)(O)O[P@](=O)(O)O[P@@](=O)(O)S)[C@@H](O)[C@H]1O", "note": "[ATPγS, adenosine triphosphate-gamma-S]", "values": [{"measurement": "2D 15N-1H HSQC titration and 1D 1H STD NMR", "setting": "[2]", "result": "ATPγS caused significant chemical shift changes in the wild-type mADK, especially in the residues around the BS1 site"}, {"measurement": "2D 15N-1H HSQC titration and 1D 1H STD NMR (weaker than wild type)", "setting": "[3]", "result": "1D ^1H STD NMR indicate that the D310P mutant has an unfavorable interaction with ATPγS relative to the wild-type mADK"}]}
{"smiles": "Nc1ncnc2c1ncn2[C@@H]1O[C@H](COP(=O)(O)OP(=O)(O)O)[C@@H](O)[C@H]1O", "note": "[ADP, adenosine-5′-diphosphate]", "values": [{"measurement": "X-ray crystal structure, 1.8 Å ternary complex mADK:ADO:ADP", "setting": "[4]", "result": "In this complex, ADP occupies BS1."}]}
